# According to patent US4226610A, “Herbicidal compounds, preparation thereof and herbicides containing the same” (Meiji Selka Kaisha, Ltd., priority 1978, dated 1980):
# Columns and labels:
# water hyacinth [1] = assay: Experiment 5 foliar application to water hyacinths; assay type: in vivo, Eichhornia crassipes Solms; details: 3 months
# Method in brief: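 Two plants floated in fertilized water per vessel, sprayed foliarly with 0.1 or 0.2% aqueous compound solutions at 100 liter per 10 are plus 0.1% octylphenyl polyoxyethanol. Killing index (0 no effect to 5 death) scored at 21 days and 3 months; reproduction inhibition scored (-) to (+++) at 3 months.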
# greaterduckweed = assay: Experiment 6 spray on aquatic plants in concrete pots; assay type: in vivo, Spirodela polyrhiza Sohleid.; details: 3 months
# Source text: (§1) The detail of the assessment made in the following Experiments of the invention was as follows:
# (§2) Four months after treatment, evaluation was made for inhibition of reproduction expressed in terms of symbols ranging from (-) to (+++) where (-) means no reproduction, namely complete suppression of reproduction, (±) remarkable suppression of reproduction; (+) considerable suppression of reproduction; (++) medium supprestion of reproduction; and (+++) no suppression of reproduction.
# (§3) A paddy field soil was packed in 50 cm. square concrete pots. omodaka (Sagittaria trifolia L.), urikawa (Sagittaria pygmaea Miq.), prog-bit (Hydrocharis dubia) and aginashi (Sagittaria Aginashi Makino) were transplanted; then water was poured onto the soil at 5 cm. depth.
# (§4) Further, water hyacinth, greater-duckweed (Spirodela polyrhiza Schleid.) and duckweed (Lemna paucicostata Hegelm) were floated on the water.
# (§5) After one month, the compounds of the invention diluted to the prescribed concentrations as indicated in Table 8 were sprayed in an amount of 100 liter per 10 are. As a surfactant, 0.1% of octylphenyl polyoxyethanol was added thereto.
# (§6) The killing index (0, no effect; 5, death) after 21 days and 3 months and the reproduction-inhibiting effect (-, no reproduction; +++, maximum reproduction) after 3 months were determined.
# hedge bindweed = assay: Experiment 1 foliar application to naturally growing weeds; assay type: in vivo, Calystegis hederacea Wall.; details: 4 months
# Method in brief: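 Naturally growing weeds receive a foliar spray of compound at prescribed concentrations, 150 liter per 10 are, containing 0.1% octylphenyl polyoxyethanol. Kill is rated 0 (no effect) to 5 (death) after 21 days. Regrowth is rated (-) to (+++) after 4 months, or 2 months for cockspar grass.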
# cockspar grass = assay: as above; assay type: in vivo, Echinochloa Crusgalli P. Beauv.; details: 2 months
# Method in brief: (§7)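 Test compounds, diluted to prescribed concentrations with 0.1% octylphenyl polyoxyethanol surfactant, were sprayed onto foliage of naturally growing weeds at 150 liter per 10 are. Killing index (0, no effect; 5, death) was scored at 21 days. Reproduction was scored from (-), complete suppression, to (+++), none, at 2 months for cockspar grass and 4 months for the other weeds.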
# yamazakura = assay: Experiment 3 foliar application to naturally growing shrubs; assay type: in vivo, Prunus donarium Sieb. var. spontanae Makino; details: after 3 months
# Method in brief: (§8)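 Naturally growing shrubs were sprayed on the foliage at 150 liter per 10 are. Plant kill was then scored from 0 to 5 at 1 and 3 months, and reproduction was graded − to +++ at 3 months.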
# azumanezasa = assay: Experiment 1 foliar application to naturally growing weeds; assay type: in vivo, Pleioblastus Chino Makino; details: for Reproduction-inhibiting effect: 4 months; for Killing index of Upperground parts: 21 days
# Method in brief: as §7
# oak = assay: Experiment 3 foliar application to naturally growing shrubs; assay type: in vivo, Quercus serrata Thunb; details: after 3 months
# Method in brief: as §8
# urikawa = assay: Experiment 6 spray on aquatic plants in concrete pots; assay type: in vivo, Sagittaria pygmaea Miguel; details: 3 months
# Source text: as §1, §2, §3, §4, §5, §6
# diatoms = assay: Experiment 7 application to water; assay type: in vivo, Bacillariophyta; set-up: key: 0: no effect; 5: perfect control
# Source text: A black soil was packed in 50 cm. square concrete pots and water was poured there-onto at 50 cm. in depth. Hornwort (Ceratophyllum demersum L.), stonewort (Chara Braunii Gmel.) and salvinia (Salvinia natans All.) were transplanted and pond scum (Spirogira crassa Kutz) and diatoms (Bacillariophyta) were floated in the water.
# Then, the compounds of the invention were applied dropwise onto the surface of the water so that the prescribed concentrations in the water are obtained as indicated in Table 9.
# aginashi = assay: Experiment 6 spray on aquatic plants in concrete pots; assay type: in vivo, Sagittaria Aginashi Makino; details: 3 months
# Source text: as §1, §2, §3, §4, §5, §6
# progbit = assay: as above; assay type: in vivo, Hydrocharis dubia; details: 3 months
# Source text: as §1, §2, §3, §4, §5, §6
# duckweed = assay: as above; assay type: in vivo, Lemna paucicostata Hegelm; details: 3 months
# Source text: as §1, §2, §3, §4, §5, §6
# water hyacinth [2] = assay: as above; assay type: in vivo, Eichhornia crassipes Solms; details: 3 months
# Source text: as §1, §2, §3, §4, §5, §6
structure (smiles),measurement,setting,value
CP(=O)(O)CCC(N)C(=O)O (racemic) [DL-AMPB choline],Reproduction-inhibiting effect,water hyacinth [1]; 0.1%,+
same,Reproduction-inhibiting effect,water hyacinth [1]; 0.2%,-
same,Reproduction-inhibiting effect,greaterduckweed; 0.05%,+
same,Reproduction-inhibiting effect,greaterduckweed; 0.1%,-
same,Reproduction-inhibiting effect,greaterduckweed; 0.2%,-
same,Reproduction-inhibiting effect,hedge bindweed; 0.05%,++
same,Reproduction-inhibiting effect,hedge bindweed; 0.1%,±
same,Reproduction-inhibiting effect,hedge bindweed; 0.2%,-
same,Reproduction-inhibiting effect,cockspar grass; 0.05%,++
same,Reproduction-inhibiting effect,cockspar grass; 0.1%,±
same,Reproduction-inhibiting effect,cockspar grass; 0.2%,-
same,Reproduction-inhibiting,yamazakura; 0.05%,++
same,Reproduction-inhibiting,yamazakura; 0.1%,-
same,Reproduction-inhibiting,yamazakura; 0.2%,-
same,Reproduction-inhibiting effect,azumanezasa; 0.05%,++
same,Killing index of Upperground parts,azumanezasa; 0.05%,1.5
same,Reproduction-inhibiting effect,azumanezasa; 0.1%,±
same,Killing index of Upperground parts,azumanezasa; 0.1%,3.5
same,Reproduction-inhibiting effect,azumanezasa; 0.2%,-
same,Reproduction-inhibiting,oak; 0.05%,++
same,Reproduction-inhibiting,oak; 0.1%,-
same,Reproduction-inhibiting,oak; 0.2%,-
same,Reproduction-inhibiting effect,urikawa; 0.05%,++
same,Reproduction-inhibiting effect,urikawa; 0.1%,+
same,Reproduction-inhibiting effect,urikawa; 0.2%,-
same,controlling effect,"diatoms; 1 ppm, 3 months",1
same,controlling effect,"diatoms; 1 ppm, 21 days",3
same,controlling effect,"diatoms; 3 ppm, 3 months",5
same,controlling effect,"diatoms; 3 ppm, 21 days",4
same,controlling effect,"diatoms; 10 ppm, 3 months",5
same,controlling effect,"diatoms; 10 ppm, 21 days",5
same,Reproduction-inhibiting effect,aginashi; 0.05%,++
same,Reproduction-inhibiting effect,aginashi; 0.1%,±
same,Reproduction-inhibiting effect,aginashi; 0.2%,-
same,Reproduction-inhibiting effect,progbit; 0.05%,++
same,Reproduction-inhibiting effect,progbit; 0.1%,±
same,Reproduction-inhibiting effect,progbit; 0.2%,-
same,Reproduction-inhibiting effect,duckweed; 0.05%,+
same,Reproduction-inhibiting effect,duckweed; 0.1%,-
same,Reproduction-inhibiting effect,duckweed; 0.2%,-
same,Reproduction-inhibiting effect,water hyacinth [2]; 0.05%,+++
same,Reproduction-inhibiting effect,water hyacinth [2]; 0.1%,++
same,Reproduction-inhibiting effect,water hyacinth [2]; 0.2%,-
